Values joined by “and” are separate entries in the source; they are usually repeats but may differ in a detail not shown here. Identical values can stand only once.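 Each compound was tested at five concentrations against cells in 96-well plates for 48 hours. GI50 = concentration required for 50% inhibition of growth. TGI denotes the concentration required for complete inhibition of growth.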
Columns and labels:
Assay in all cases: growth of human tumour cells (NCI), 48 h
[1] = test system: ACHN renal
[2] = test system: HCC-2998 colon
[3] = test system: RPMI-8226 leukemia
[4] = test system: SW-620 colon
[5] = test system: SN12C renal
[6] = test system: MALME-3M melanoma
[7] = test system: U251 CNS
[8] = test system: CCRF-CEM leukemia
[9] = test system: UO-31 renal
[10] = test system: TK-10 renal

SMILES | GI50 [1] | TGI [1] | GI50 [2] | TGI [2] | GI50 [3] | TGI [3] | GI50 [4] | TGI [4] | GI50 [5] | TGI [5] | GI50 [6] | TGI [6] | GI50 [7] [nM] | TGI [7] | GI50 [8] | TGI [8] | GI50 [9] | TGI [9] | GI50 [10] [nM] | TGI [10]
CNCCCn1cc(C2=C(c3cn(C)c4ccccc34)C(=O)NC2=O)c2ccccc21 | 3990 nM | 13.9 µM | 5.13 µM | 11.7 µM | 5120 nM | 11.7 µM | 3720 nM | 8.13 µM | 4860 nM | 18.4 µM | 5370 nM | 10.4 µM | 3140 | 6.96 µM | 4.91 µM | 20.4 µM | 3580 nM | 11.8 µM | 4160 | 10.7 µM
Clc1ccc2c(NCCCNc3nccc(Nc4ccc(Br)cc4)n3)ccnc2c1 | 1660 nM | 3.2 µM | 1.5 µM | 2.93 µM | 1970 nM | 4.45 µM | 1580 nM | 3.3 µM | 1690 nM | 3.37 µM |  |  | 1520 | 2.94 µM |  |  | 1520 nM | 3.01 µM | 1830 | 3.26 µM
O=C(Nc1ccc(OS(=O)(=O)c2ccccc2)cc1)C12CC3CC(CC(C3)C1)C2 | > 100000 nM | > 100 µM | 5.48 µM | > 100 µM | 2150 nM | > 100 µM | 1970 nM | > 100 µM | > 100000 nM | > 100 µM | > 100000 nM | > 100 µM | 4810 | > 100 µM | 3.73 µM | > 100 µM | 18700 nM | > 100 µM | > 100000 | > 100 µM
CC1=CC(/C=C(\C)CCCc2ccoc2)C2(OC(=O)C(C)=C2O)[C@H]2C1CC[C@@H]2C (stereo partly drawn) |  | 76.4 µM |  | 74.2 µM |  | 59.6 µM |  | > 100 µM |  | 60.8 µM |  | 57.1 µM |  | 67.1 µM |  | 58.6 µM |  | 31 µM |  | > 100 µM
C[As](C)SC1OC(CO)C(O)C1O (stereo not drawn) | 257 nM | 1.03 µM |  |  | 100 nM | 0.342 µM | 391 nM | 1.61 µM | 312 nM | 1.52 µM | 84.7 nM | 0.65 µM | 709 | 3.2 µM | 0.259 µM | 1.13 µM | 97.3 nM | 0.555 µM | 174 | 0.816 µM
Cc1cc(Br)cc(C)c1NC(=O)C(=O)C(C(=O)c1ccc2ccccc2c1)C1OC(=O)c2ccccc21 (stereo not drawn) |  | 34.7 µM |  | 24.7 µM |  | > 80.5 µM |  | 28.1 µM |  | 50.5 µM |  | 34.5 µM |  | 18.7 µM |  | 45.1 µM |  | 30.3 µM |  | 36.9 µM
CCCCc1c(OC)cc(O)c2c1C(=O)c1[nH]c(C(=O)O)c(O)c(=O)c1C2=O |  | > 100 µM |  | > 100 µM |  | > 100 µM |  | > 100 µM |  | > 100 µM |  |  |  | 17.6 µM |  | > 100 µM |  | 13.8 µM |  | > 100 µM
O=c1n(CC2CO2)c(=O)n(CC2CO2)c(=O)n1CC1CO1 (stereo not drawn) | 3680 nM and 504 nM | 140 µM and > 100 µM | 11.4 µM and 21.2 µM | 27 µM and 108 µM and > 100 µM | 28400 nM and 17600 nM | 399 µM and > 100 µM | 26300 nM and 13200 nM | 228 µM and > 100 µM | 17700 nM and 3550 nM | 52 µM and 88.1 µM and > 100 µM | 17100 nM and 43200 nM | 44.3 µM and 70.2 µM and > 100 µM | 5470 | 32.4 µM and 67.2 µM and 32.2 µM | 6.05 µM and 2.92 µM | 223 µM and > 100 µM | 21100 nM and 6420 nM | 88.6 µM and 118 µM and > 100 µM | 21100 | 121 µM and > 100 µM
CC1OC2CC(=O)OC2C2=C1C(=O)c1c(O)cccc1C2=O (stereo not drawn) | 29.9 nM | 0.0992 µM | 0.236 µM | 0.558 µM | 58.7 nM | 0.602 µM | 41.1 nM | 0.154 µM | 116 nM | 0.259 µM | 23.5 nM | 0.0695 µM | 167 | 0.492 µM | 0.0269 µM | 0.501 µM | 72.5 nM | 0.23 µM | 79.5 | 0.283 µM
CCC[CH2][Sn]([CH2]CCC)([CH2]CCC)[O]C(=O)CC | 170 nM | 0.333 µM | 0.171 µM | 0.316 µM | 169 nM | 0.506 µM | 151 nM | 0.301 µM | 158 nM | 0.365 µM | 151 nM | 0.349 µM | 168 | 0.327 µM |  |  | 150 nM | 0.314 µM | 161 | 0.305 µM
CCN(CC)CCOc1ccc(/C=C(\C#N)c2ccc(OCCN(CC)CC)cc2)cc1 |  | > 58.8 µM |  | 32.3 µM |  | 50.1 µM |  | 29.6 µM |  | > 100 µM |  | 28 µM |  | 35.8 µM |  | 44.2 µM |  | 31.2 µM |  | > 91.3 µM
CCCCN(CCCC)CC(C(=O)Nc1ccc([N+](=O)[O-])cc1[N+](=O)[O-])/C(C)=N\NC(=S)NN (stereo not drawn) |  | > 100 µM |  | > 100 µM |  | > 100 µM |  | > 100 µM |  |  |  | > 100 µM |  | > 100 µM |  | > 100 µM |  | > 100 µM |  | > 100 µM
Cc1nnc(S(=O)(=O)c2ccc(N=Nc3c(N)nc(N)nc3N)cc2)s1 |  | > 100 µM |  |  |  | > 100 µM |  | > 100 µM |  | > 100 µM |  | > 100 µM |  | > 100 µM |  | > 100 µM |  | > 100 µM |  | > 100 µM
CNC(=S)NC1CCCCC1NC(=S)NC (stereo not drawn) |  | > 100 µM |  | > 100 µM |  | > 100 µM |  | > 100 µM |  | > 100 µM |  | > 100 µM |  | > 100 µM |  | > 100 µM |  | > 100 µM |  | 
CCOC(=O)Oc1c(OC)cc(C(=O)NC2CCc3cc(OC)c(OC)c(OC)c3-c3ccc(SC)c(=O)cc32)cc1OC (stereo not drawn) | 235 nM | > 70 µM | 0.0156 µM | 0.187 µM and 0.039 µM |  |  | < 7 nM | > 70 µM | 13.6 nM | 25.2 µM | 20.5 nM | > 70 µM | 9.62 | 0.287 µM and 0.0579 µM |  |  |  | > 70 µM | 163 | > 70 µM
